Measured values published in ChEMBL document CHEMBL6074662, “Antibacterial, Antibiofilm, and Anti-inflammatory Effects of a Novel Thrombin-Derived Peptide in Sepsis Models: Insights into Underlying Mechanisms” (J Med Chem, 2024).
Active and inactive are the calls of the source. No cut-off for these calls is given here.

What was measured:
Pseudomonas aeruginosa [1] = experiment: Synergistic antibacterial activity against multi-drug resistant Pseudomonas aeruginosa CCARM 2095 assessed as fractional inhibitory concentration index by measuring ratio of MIC of Chloramphenicol in presence of compound to MIC to Chloramphenicol incubated for 24 hrs by broth microdilution method; format: functional
Pseudomonas aeruginosa [2] = experiment: Synergistic antibacterial activity against multi-drug resistant Pseudomonas aeruginosa CCARM 2095 assessed as fractional inhibitory concentration index by measuring ratio of MIC of compound in presence of Ciprofloxacin to MIC to compound incubated for 24 hrs by broth microdilution method; format: functional
Escherichia coli [3] = experiment: Induction of morphological change in Escherichia coli KCTC 1682 assessed as distorted irregular cells at MIC incubated for 4 hrs by SEM analysis; format: functional, organism-based
Pseudomonas aeruginosa [4] = experiment: Antibacterial activity against multidrug-resistant Pseudomonas aeruginosa CCARM 2095 incubated for 24 hrs by CLSI based broth microdilution method; format: functional
Escherichia coli [5] = experiment: Antibacterial activity against Escherichia coli KCTC 1682 incubated for 24 hrs in presence of MgCl2 by CLSI based broth microdilution method; format: functional
Escherichia coli [6] = experiment: Induction of inner membrane permeabilization in Escherichia coli KCTC 1682 at MIC by PI staining based flow cytometry (reference value: 1.51 %); format: functional
RAW264.7 = experiment: Anti-inflammatory activity in mouse RAW264.7 cells assessed as inhibition of LPS-induced NO production at 5 uM pretreated for 1 hr followed by LPS treatment for 16 hrs by Griess assay relative to control; format: functional; conditions: time 17 hrs
Staphylococcus aureus = experiment: Synergistic antibacterial activity against methicillin-resistant Staphylococcus aureus CCARM 3089 incubated for 24 hrs in presence of Chloramphenicol by broth microdilution method; format: functional
Escherichia coli [7] = experiment: Antibacterial activity against Escherichia coli KCTC 1682 incubated for 24 hrs in presence of human serum by CLSI based broth microdilution method; format: functional
[8] = Effect on secondary structure of drug in LPS assessed as fold increase in formation of alpha-helical conformation at 150 uM by CD analysis relative to HVF18; format: physicochemical
Escherichia coli [9] = experiment: Antibacterial activity against Escherichia coli KCTC 1682 incubated for 24 hrs in presence of NH4Cl by CLSI based broth microdilution method; format: functional
Acinetobacter baumannii = experiment: Antibacterial activity against multidrug-resistant Acinetobacter baumannii 329-53 incubated for 24 hrs by CLSI based broth microdilution method; format: functional
Escherichia coli [10] = experiment: Antibacterial activity against Escherichia coli KCTC 1682 assessed as zone of clearance incubated for 4 hrs in presence of trypsin by radical diffusion assay; format: functional, organism-based
Mus musculus [11] = experiment: Antiseptic activity in sepsis shock ICR mouse model infected with carbapenem-resistant Acinetobacter baumannii assessed as recovery of neutrophil infiltration in lungs at 1 mg/kg, ip pretreated with compound for 1 hr followed by bacterial infection measured after 16 hrs by H and E staining based analysis; format: functional, organism-based; conditions: time 17.0 hrs
Mus musculus [12] = experiment: Antiseptic activity in sepsis shock ICR mouse model infected with carbapenem-resistant Acinetobacter baumannii assessed as decrease in TNF-alpha level in serum at 1 mg/kg, ip pretreated with compound for 1 hr followed by bacterial infection measured after 16 hrs relative to control; format: functional; set-up: scale not given: the % may be the effect or the level left; conditions: time 17 hrs
[13] = target: T1, Toll-like receptor 4 (Mus musculus) (UniProt Q9QUK6); experiment: Inhibition of LPS-induced TLR4 activation in mouse RAW264.7 cells assessed as decrease in JNK phosphorylation at 2 uM pretreated for 1 hr followed by LPS treatment for 30 mins by Western blot analysis relative to control; format: cell-based; conditions: time 90.0 min
T1 sequence (whole entry): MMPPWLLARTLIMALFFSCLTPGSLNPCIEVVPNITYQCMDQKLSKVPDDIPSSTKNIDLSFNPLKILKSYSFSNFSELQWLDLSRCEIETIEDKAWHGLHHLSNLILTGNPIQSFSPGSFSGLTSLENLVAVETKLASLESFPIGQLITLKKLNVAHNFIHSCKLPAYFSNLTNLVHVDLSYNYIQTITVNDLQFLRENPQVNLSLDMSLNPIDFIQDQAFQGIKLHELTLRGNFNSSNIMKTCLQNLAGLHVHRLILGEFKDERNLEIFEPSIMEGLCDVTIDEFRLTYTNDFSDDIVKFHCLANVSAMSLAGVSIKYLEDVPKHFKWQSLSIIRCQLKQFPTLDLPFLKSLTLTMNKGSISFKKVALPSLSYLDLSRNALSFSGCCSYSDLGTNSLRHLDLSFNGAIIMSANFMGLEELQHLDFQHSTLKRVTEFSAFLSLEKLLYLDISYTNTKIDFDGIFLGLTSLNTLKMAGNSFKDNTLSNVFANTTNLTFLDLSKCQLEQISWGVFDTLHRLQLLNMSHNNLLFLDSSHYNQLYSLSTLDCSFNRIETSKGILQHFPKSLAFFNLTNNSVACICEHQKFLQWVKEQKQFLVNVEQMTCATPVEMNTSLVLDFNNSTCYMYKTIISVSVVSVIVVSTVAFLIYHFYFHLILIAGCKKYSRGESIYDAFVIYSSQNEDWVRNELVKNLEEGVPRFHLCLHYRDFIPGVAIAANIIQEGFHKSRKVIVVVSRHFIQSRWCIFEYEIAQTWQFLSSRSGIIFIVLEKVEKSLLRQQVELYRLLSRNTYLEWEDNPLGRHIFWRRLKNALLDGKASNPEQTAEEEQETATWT

Mus musculus [14] = experiment: Antiseptic activity in sepsis shock ICR mouse model infected with carbapenem-resistant Acinetobacter baumannii assessed as decrease in BUN level in serum at 1 mg/kg, ip pretreated with compound for 1 hr followed by bacterial infection measured after 16 hrs relative to control; format: functional; set-up: scale not given: the % may be the effect or the level left; conditions: time 17 hrs
Pseudomonas aeruginosa [15] = experiment: Bactericidal activity against multidrug-resistant Pseudomonas aeruginosa CCARM 2095 at 0.5 to 2 uM incubated for 12 hrs by time-kill assay; format: functional, organism-based; conditions: dose 0.5-2 µM
Mus musculus [16] = experiment: (§1) Antiseptic activity in sepsis shock ICR mouse model infected with carbapenem-resistant Acinetobacter baumannii assessed as reduction in bacterial count in liver at 1 mg/kg, ip pretreated with compound for 1 hr followed by bacterial infection measured after 16 hrs relative to control; format: functional; set-up: scale not given: the % may be the effect or the level left; conditions: time 17 hrs
Lipopolysaccharide (LPS) = experiment: Displacement of BODIPY-TR-cadaverine from Escherichia coli 0111:B4 LPS at 16 uM incubated for 30 mins by fluorescence based assay relative to control
Pseudomonas aeruginosa [17] = experiment: Synergistic bactericidal activity against multidrug-resistant Pseudomonas aeruginosa CCARM 2095 at 0.5 to 2 uM incubated for 12 hrs in presence of oxacillin by time-kill assay; format: functional, organism-based; conditions: dose 0.5-2 µM
[18] = Effect on secondary structure of drug in LPS assessed as formation of left-handed alpha-helical conformation at 150 uM by CD analysis; format: physicochemical
Mus musculus [19] = experiment: Antiseptic activity in sepsis shock ICR mouse model infected with carbapenem-resistant Acinetobacter baumannii assessed as decrease in endotoxin level in serum at 1 mg/kg, ip pretreated with compound for 1 hr followed by bacterial infection measured after 16 hrs relative to control; format: functional; set-up: scale not given: the % may be the effect or the level left; conditions: time 17 hrs
Mus musculus [20] = experiment: Antiseptic activity in sepsis shock ICR mouse model infected with carbapenem-resistant Acinetobacter baumannii assessed as decrease in AST level in serum at 1 mg/kg, ip pretreated with compound for 1 hr followed by bacterial infection measured after 16 hrs relative to control; format: functional; set-up: scale not given: the % may be the effect or the level left; conditions: time 17 hrs
Mus musculus [21] = experiment: as §1, with “pre-infected” for “pretreated”, “bacteria” for “compound for 1 hr”, “compound administration 3 hrs post-infection” for “bacterial infection”; format: functional; set-up: scale not given: the % may be the effect or the level left

| Substance | FIC (Pseudomonas aeruginosa [1]) | FIC (Pseudomonas aeruginosa [2]) | Activity (Escherichia coli [3]) | MIC (Pseudomonas aeruginosa [4]) [µM] | MIC (Escherichia coli [5]) [µM] | Activity (Escherichia coli [6]) [%] | inhibition at 5 µM (RAW264.7) [%] | MIC (Staphylococcus aureus) [µM] | MIC (Escherichia coli [7]) [µM] | fold change (FC) [8] | MIC (Escherichia coli [9]) [µM] | MIC (Acinetobacter baumannii) [µM] | also measured |
| --- | --- | --- | --- | --- | --- | --- | --- | --- | --- | --- | --- | --- | --- |
| H-GVFRLKKWIKKVIKKWGK-NH2 | 0.125 | 0.5 | Active | 8 | 32 | ~100 | 89 | 2 | 32 | ~ 5 | 16 | 4 | Activity (Escherichia coli [10]): inactive |
| H-GVFRLKKWLKKVKKWGK-NH2 | 0.125 | 0.5 | Active | 8 | 32 | ~100 | 91.6 | 0.5 | 32 | ~ 5 | 16 | 4 | Activity (Mus musculus [11]): Active; Activity (Mus musculus [12]): 49.4%; inhibition [13]: 52%; Activity (Mus musculus [14]): 56.7%; Activity (Pseudomonas aeruginosa [15]): inactive; Activity (Mus musculus [16]): 99.7%; Activity (Lipopolysaccharide (LPS)): 75%; Activity (Pseudomonas aeruginosa [17]): Active; Activity [18]: Active; Activity (Mus musculus [19]): >56.1%; Activity (Mus musculus [20]): 31.8%; Activity (Mus musculus [21]): 90.7% |
